Tests used:
[1] = test system: muscarinic cholinergic receptor; assay: pharmacological studies, muscarinic cholinergic receptor activity
excessive aggression = assay: double-blind multicenter clinical trial, olanzapine or placebo; assay type: in vivo, human; conditions: patients randomized to olanzapine or placebo
From the text: A double-blind multicenter clinical trial was designed to assess the safety and efficacy of olanzapine. Patients were randomized to olanzapine or placebo.

[2] = detection of radiolabelled olanzapine in saliva; assay type: in vivo
Method: For example, in the treatment of adult humans, dosages of from 5 to 20 mg per day may be used. A once a day dosage is normally sufficient, although divided doses may be administered. For treatment of extreme aggression, a dose range of from 5 to 20 mg per day is suitable.

5-HT1C receptor = assay: pharmacological studies, 5-HT1C receptor activity

Cc1cc2c(s1)Nc1ccccc1N=C2N1CCN(C)CC1 [olanzapine, 2-methyl-4-(4-methyl-1-piperazinyl)-10H-thieno[2,3-b][1,5]benzodiazepine]
muscarinic cholinergic receptor activity [1]: has muscarinic cholinergic receptor activity
efficacy in treatment of excessive aggression (excessive aggression): can be useful for the treatment of excessive aggression
detection in saliva [2]: can be detected in the saliva
activity at the 5-HT1C receptor (5-HT1C receptor): active
